Measured values: publication PMC10331595 (Redox Biology, 2023)
Where two headings read alike, the source gives them in different places.

Test system: NK-LAAO (native Naja kaouthia L-amino acid oxidase)
Type: biochemical
Conditions: 100 mM Tris-HCl pH 8.5, 25 °C

Molecule N=C(N)NCCC[C@H](N)C(=O)O [L-Arg] has a Km (0.125-4 mM substrate, 2 min) of 3100 ± 448 µM.

N[C@@H](CCC(=O)O)C(=O)O [L-Glu] was tested, and the Km (0.625-20 mM substrate, 240 min) was 3560 ± 353 µM.

CC(C)C[C@H](N)C(=O)O [L-Leu] was tested, and the Km (0.0625-4 mM substrate, 4 min) was 637 ± 34.5 µM.

CSCC[C@H](N)C(=O)O [L-Met] was tested, and the Km (0.03125-4 mM substrate, 2 min) was 587 ± 9.5 µM.

Molecule N[C@@H](Cc1c[nH]c2ccccc12)C(=O)O [L-Trp] has a Km (0.03125-1 mM substrate, 2 min) of 471 ± 25.9 µM.
